{
  "source": "patent US7378082B1",
  "about": "“Method for treating allergic rhinitis without adverse effects” (Inspire Pharmaceuticals, Inc., priority 2007, dated 2008)",
  "conditions": "intranasal 0.05% or 0.1% nasal spray; after first dose (Day 1) and last dose (Day 14); 43 subjects",
  "protocol": "Each group started with approximately 190 subjects.\nPlasma epinastine levels following intranasal administration were determined.",
  "data": [
    {"smiles": "NC1=NCC2c3ccccc3Cc3ccccc3N12", "note": "(stereo not shown) [epinastine, 3-amino-9,13b-dihydro-1H-dibenz-[c,-f]imidazol[1,5-a]azepine]", "values": [
      {"measurement": "Plasma concentrations of epinastine", "value": "< 1", "unit": "ng/mL"}
    ]}
  ]
}
